Tests used:
DBH = target: T1, DBH (Bos taurus, UniProt P15101); test: in vitro DBH inhibition, conversion of tyramine to octopamine; assay type: biochemical; details: octopamine assayed as p-hydroxybenzaldehyde after sodium periodate oxidation, absorbance at 330 nm; read-out: IC50 (molar concentration of compound at which DBH activity was halved)
T1 sequence (P15101 1-610): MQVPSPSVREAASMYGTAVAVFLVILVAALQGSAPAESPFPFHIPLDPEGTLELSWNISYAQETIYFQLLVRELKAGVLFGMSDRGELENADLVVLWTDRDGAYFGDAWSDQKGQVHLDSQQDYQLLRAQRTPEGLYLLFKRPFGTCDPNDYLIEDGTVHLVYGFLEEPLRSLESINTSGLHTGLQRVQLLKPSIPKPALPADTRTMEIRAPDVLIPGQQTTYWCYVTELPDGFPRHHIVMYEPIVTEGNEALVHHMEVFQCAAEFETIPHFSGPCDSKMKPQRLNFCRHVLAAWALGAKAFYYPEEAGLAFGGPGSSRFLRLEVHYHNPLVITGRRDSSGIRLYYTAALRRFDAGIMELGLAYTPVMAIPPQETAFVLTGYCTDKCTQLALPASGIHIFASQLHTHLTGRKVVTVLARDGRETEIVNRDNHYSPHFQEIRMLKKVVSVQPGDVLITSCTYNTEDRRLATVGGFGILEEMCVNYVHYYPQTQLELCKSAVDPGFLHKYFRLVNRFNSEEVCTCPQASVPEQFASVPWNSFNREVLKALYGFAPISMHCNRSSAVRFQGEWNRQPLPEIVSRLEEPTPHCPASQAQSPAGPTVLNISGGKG
Description: Listed in Table I are Formula (I) compounds that were tested for in vitro DBH inhibition by a standard procedure for assaying conversion of tyramine to octopamine in the presence of DBH. J. J. Pisano, et al., Biochim. Biophys. 43, 566-568 (1960). Octopamine was assayed following sodium periodate oxidation to p-hydroxybenzaldehyde by measuring spectrophotometric absorbance at 330 nm. Inhibition is given in molar concentration of compound at which DBH activity was halved (IC50).

[1] = test system: Spontaneously hypertensive rats; test: mean arterial blood pressure in spontaneously hypertensive rats; assay type: in vivo; details: 50 mg/kg intraperitoneally
Description: Spontaneously hypertensive rats were treated with 2-(2-aminoethylthio) 1-(3,5 difluorobenzyl)imidazole at a dose of 50 mg/kg intraperitoneally, and mean arterial blood pressure was monitored for four hours using an indwelling cannula in the femoral artery. […] The maximal blood pressure reduction was approximately 10 mmHg.

SMILES: Cl.Cl.NCCSc1nccn1Cc1cc(F)cc(F)c1 [2-(2-Aminoethylthio)-1-(3,5-difluorobenzyl)imidazole Dihydrochloride]
- IC50 (DBH): 1800 µM
- maximal blood pressure reduction ([1]; mean arterial blood pressure, femoral artery cannula): approximately 10 mmHg
- blood pressure reduction compared to vehicle treated controls ([1]; monitored for four hours): significant blood pressure reductions
- time of lowest blood pressures after administration ([1]; monitored for four hours): 3 to 4 h
- time to significant blood pressure reductions ([1]; vs vehicle treated controls): ≤ 30 min

From patent US4882348A, “2-(aminoalkylthio)imidazoles as dopamine-β-hydroxylase inhibitors” (SmithKline Beckman Corporation, priority 1987, dated 1989)
